In US10435394B2, “Plant growth-promotion agent and method for promoting plant growth” (RIKEN, priority 2014, dated 2019):

Legend:
Assay type in all cases: in vivo
[1] = system: Arabidopsis seeds (Columbia); assay: Plant growth promoting activity test using Arabidopsis, Experimental Method (1); settings: for plant growth promoting effects (state of sprouting): 60 μM in 1/2 MS medium, Day 23, FIG. 1
Experimental: A ½ MS medium (agarose: 0.9%; sucrose: 1.5%; Murashige & Skoog plant culture medium×½ concentration) was prepared and autoclaved. Then, the test compounds were separately added thereto at 60 μM and solidified in a plastic petri dish. Arabidopsis seeds (Columbia) were sterilized with ethanol and sown to sprout, followed by observation of conditions of leaves, roots, and stems after sprouting. DMSO alone was added as a solvent for a control.

[2] = system: Arabidopsis seeds (Columbia); assay: Plant growth promoting activity test using Arabidopsis, Experimental Method (2); settings: 15, 30, 60 μM; for growth of aerial leaves: Day 26 of sprouting, FIGS. 15 and 16; for plant growth promoting effects (state of sprouting): Day 22, FIGS. 6 and 7; for growth of aerial leaves (average leaf area per individual): Day 27 of sprouting, FIGS. 10 and 11
Experimental: A ½ MS medium (agarose: 0.9%; sucrose: 1.5%; Murashige & Skoog plant culture medium×½ concentration) was prepared and autoclaved. Then, the test compounds were separately added thereto at 0 (DMSO alone), 15, 30, and 60 μM and solidified in a plastic petri dish. Arabidopsis seeds (Columbia) were sterilized with ethanol and sown to sprout, followed by observation of conditions of leaves and roots after sprouting. DMSO alone was added as a solvent for a control.

[3] = system: Arabidopsis seeds (Columbia); assay: Plant growth promoting activity test using Arabidopsis, Experimental Method (1); settings: 5, 15, 30, 45, 60 μM
[4] = system: Tomato seeds (Micro-Tom); assay: Plant growth promoting effects on tomato; settings: 5, 15, 30 μM in 1/2 MS medium; Day 73 of sprouting; FIG. 17
Experimental: A ½ MS medium (agarose: 0.9%; sucrose: 1.5%; Murashige & Skoog plant culture medium×½ concentration) was prepared and autoclaved. Then, the compound 1 (PPZ) was added thereto at 0 (DMSO alone), 5, 15, and 30 μM and solidified in a plastic pot. Tomato seeds (Micro-Tom) were sterilized with hypochlorous acid and sown to sprout, followed by observation of conditions of leaves and stems after sprouting. DMSO alone was added as a solvent for a control.

[5] = system: rice (Nipponbare); assay: Plant growth promoting effects upon rice; settings: 15 or 30 μM in water absorbed from the bottom of the pot from Day 7; Day 21 of sprouting; FIG. 18
Experimental: A plant pot containing rice culture soil was prepared and rice (Nipponbare) was sown therein. Rice was raised with distilled water until Day 7 of sprouting. Rice was allowed to absorb distilled water containing the compound 1 (PPZ) at a concentration of 0 (DMSO alone), 15, or 30 μM from the bottom of the pot from Day 7 of sprouting. Water used was discarded every 7 days and replaced by fresh water. Rice was photographed and the plant length of rice was measured on Day 21 of sprouting or Day of 14 from the start of treatment.

For `c1ncn(Cc2ccc3c(c2)OCO3)n1` [Compound 6], the “plant growth promoting effects (state of sprouting)” value (“plant growth promoting effects” for short) [1] was “decreased plant growth promoting activity and/or growth inhibition”.
For `COc1ccc(CN2CCOCC2)cc1OC` [Compound 10], the “elongation of the main root” value ([1]; not shown in figures) was “excellent plant growth promoting effects for elongation of the main root”.
`c1cc2c(cc1CN1CCN(Cc3ccc4c(c3)OCO4)CC1)OCO2` [Compound 2, 1,4-dipiperonylpiperazine] was tested, and the “plant growth promoting effects” value [1] was “decreased plant growth promoting activity and/or growth inhibition”.
In the case of `O=S1(=O)CCN(Cc2ccc3c(c2)OCO3)CC1` [Compound 21], the “growth of aerial leaves” value [2] is reported as “activity of promoting the growth of aerial leaves at the late growth stage”.
`COCCN(C)Cc1ccc2c(c1)OCO2` [Compound 22] was tested, and the “growth of aerial leaves” value [2] was “activity of promoting the growth of aerial leaves at the late growth stage”.
`c1cc2c(cc1CN1CCOCC1)OCO2` [Compound 4] was tested, and the “growth of aerial leaves” value [2] was “activity of promoting the growth of aerial leaves at the late growth stage”.
For `c1cc2c(cc1CN1CCSCC1)OCO2` [Compound 12], the “elongation of stems and roots” value ([1]; not shown in figures) was “excellent plant growth promoting effects for elongation of stems and roots”.
`c1cn(Cc2ccc3c(c2)OCO3)nn1` [Compound 7] was tested, and the “plant growth promoting effects” value [1] was “decreased plant growth promoting activity and/or growth inhibition”.
With `COc1cc(CN2CCOCC2)cc(OC)c1OC` [Compound 13] the “plant growth promoting effects” value [2] was “weak plant growth promoting effects”.
For `c1cc2c(cc1CN1CCNCC1)OCO2` [Compound 1, 1-piperonylpiperazine], the “development/growth of lateral roots” value ([3]; Day 13 of sprouting, constant light irradiation, FIG. 2) was “activity of promoting development/growth of lateral roots in the early growth stage”, the “growth of aerial leaves and petioles” value ([3]; Day 21 of sprouting, FIG. 3) was “activity of promoting growth of aerial leaves and petioles in the late growth stage” and the branching ([3]; Day 35 of sprouting, FIG. 4) was “activity of promoting branching”. For the same molecule, the salt tolerance ([3]; sodium chloride 125 mM, Day 21 of sprouting, FIG. 5) was “action of enhancing salt tolerance”, the “growth of aerial leaves” value [2] was “activity of promoting the growth of aerial leaves at the late growth stage” and the “growth of aerial leaves (average leaf area per individual)” value [2] was “activity of promoting growth of aerial leaves at the late growth stage”. For the same molecule, the “growth of aerial leaves and stems of tomato” value [4] was “activity of promoting the growth of aerial leaves and stems of tomato” and the “growth of aerial leaves and stems of rice (plant length)” value [5] was “activity of promoting the growth of aerial leaves and stems of rice”.
For `CN1CCN(Cc2ccc3c(c2)OCO3)CC1` [Compound 11], the “elongation of stems and roots” value ([1]; not shown in figures) was “excellent plant growth promoting effects for elongation of stems and roots”.
`c1cc2c(cc1CCN1CCOCC1)OCO2` [Compound 16] was tested, and the “growth of aerial leaves” value [2] was “activity of promoting the growth of aerial leaves at the late growth stage” and the “growth of aerial leaves (average leaf area per individual)” value [2] was “activity of promoting growth of aerial leaves at the late growth stage”.
With `COc1ccc(N2CCOCC2)cc1OC` [Compound 15] the “plant growth promoting effects” value [2] was “weak plant growth promoting effects”.
